Measurements: patent publication US20250002507A1, “7,8-DIHYDRO-5H-1,6-NAPHTHYRIDINE DERIVATIVES AS POSITIVE ALLOSTERIC MODULATORS OF THE MUSCARINIC ACETYLCHOLINE RECEPTOR M4 FOR TREATING NEUROLOGICAL AND PSYCHIATRIC DISORDERS” (Vanderbilt University, priority 2021, published 2025)
Like-named read-outs stand apart in the source and are kept apart here.

Biological target: T1, Human M4 (Homo sapiens, UniProt P08173)
T1 construct: expressed in transfected cells
T1 sequence (P08173 1-479): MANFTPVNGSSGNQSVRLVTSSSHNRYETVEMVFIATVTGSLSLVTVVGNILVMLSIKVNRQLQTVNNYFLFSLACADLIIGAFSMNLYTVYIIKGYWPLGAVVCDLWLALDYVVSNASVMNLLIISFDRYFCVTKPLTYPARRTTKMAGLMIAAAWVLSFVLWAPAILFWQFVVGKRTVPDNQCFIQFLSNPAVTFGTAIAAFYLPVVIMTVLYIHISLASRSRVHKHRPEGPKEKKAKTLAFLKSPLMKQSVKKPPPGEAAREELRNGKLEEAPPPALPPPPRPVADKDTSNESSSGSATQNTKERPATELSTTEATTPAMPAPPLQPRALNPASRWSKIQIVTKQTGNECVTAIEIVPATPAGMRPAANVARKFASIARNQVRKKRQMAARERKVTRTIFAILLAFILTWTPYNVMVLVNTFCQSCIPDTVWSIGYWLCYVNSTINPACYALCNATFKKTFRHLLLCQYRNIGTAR
Assay: mAChR M4 cell-based functional assay (calcium flux, potentiation of EC20 acetylcholine response), hM4-Gqi5 CHO-K1 cells
Conditions: for Emax at 30 µM: % ACh maximum at 30 μM; for EC50: calcium flux, read-out: Human M4 EC50
How it was run: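 Positive allosteric modulation was scored as a concentration-dependent rise in the response to an EC20 dose of acetylcholine, added 144 s after the compound. Human M4-Gqi5 CHO-K1 cells carried Fluo-4 dye, and compounds ran as 11-point, 3-fold dilution series. EC50 and Emax came from four-parameter logistic fits of the FDSS fluorescence-ratio traces.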

[1] = CHO-K1, human M4, read-out: Emax
[2] = hM4-Gqi5 CHO-K1 cells, PAM of EC20 acetylcholine
[3] = Table 3, potentiation of EC20 acetylcholine response, CHO-K1 cells
[4] = CHO-K1, Table 3, Human M4, read-out: Emax (% ACh maximum at 30 μM)

| SMILES | Emax at 30 µM [1] [%] | EC50 [2] [nM] | further results |
| --- | --- | --- | --- |
| CCn1ccc(-c2cnc3c(c2)CN(c2nn4ccnc4cc2C)CC3)n1 [Compound 131, 3-(1-ethylpyrazol-3-yl)-6-(7-methylimidazo[1,2-b]pyridazin-6-yl)-7,8-dihydro-5H-1,6-naphthyridine] | 81 | 921 |  |
| Cc1c(N2CCc3ncc(-c4cc(-c5ccccc5)no4)cc3C2)nn2cnnc2c1C [Compound 132, 5-[6-(7,8-dimethyl-[1,2,4]triazolo[4,3-b]pyridazin-6-yl)-7,8-dihydro-5H-1,6-naphthyridin-3-yl]-3-phenyl-isoxazole] | 81 | 1950 |  |
| Cc1cc2nncn2nc1N1CCc2ncc(-c3cc(-c4ccccc4)no3)cc2C1 [Compound 133, 5-[6-(7-methyl-[1,2,4]triazolo[4,3-b]pyridazin-6-yl)-7,8-dihydro-5H-1,6-naphthyridin-3-yl]-3-phenyl-isoxazole] | 68 | 1340 |  |
| Cc1cnn(C)c1-c1cnc2c(c1)CN(c1nn3cnnc3c(C)c1C)CC2 [Compound 134, 3-(2,4-dimethylpyrazol-3-yl)-6-(7,8-dimethyl-[1,2,4]triazolo[4,3-b]pyridazin-6-yl)-7,8-dihydro-5H-1,6-naphthyridine] | 88 | 299 |  |
| Cc1cc2nncn2nc1N1CCc2ncc(-c3c(C)cnn3C)cc2C1 [Compound 135, 3-(2,4-dimethylpyrazol-3-yl)-6-(7-methyl-[1,2,4]triazolo[4,3-b]pyridazin-6-yl)-7,8-dihydro-5H-1,6-naphthyridine] | 81 | 772 |  |
| Cc1cc2nccn2nc1N1CCc2ncc(-c3c(C)cnn3C)cc2C1 [Compound 136, 3-(2,4-dimethylpyrazol-3-yl)-6-(7-methylimidazo[1,2-b]pyridazin-6-yl)-7,8-dihydro-5H-1,6-naphthyridine] | 66 | 1200 |  |
| Cc1c(N2CCc3ncc(-c4ccnn4C)cc3C2)nn2cnnc2c1C [Compound 137, 6-(7,8-dimethyl-[1,2,4]triazolo[4,3-b]pyridazin-6-yl)-3-(2-methylpyrazol-3-yl)-7,8-dihydro-5H-1,6-naphthyridine] | 99 | 295 |  |
| Cc1cc2nncn2nc1N1CCc2ncc(-c3ccnn3C)cc2C1 [Compound 138, 3-(2-methylpyrazol-3-yl)-6-(7-methyl-[1,2,4]triazolo[4,3-b]pyridazin-6-yl)-7,8-dihydro-5H-1,6-naphthyridine] | 105 | 574 |  |
| Cc1cc2nccn2nc1N1CCc2ncc(-c3ccnn3C)cc2C1 [Compound 139, 6-(7-methylimidazo[1,2-b]pyridazin-6-yl)-3-(2-methylpyrazol-3-yl)-7,8-dihydro-5H-1,6-naphthyridine] | 83 | 433 |  |
| Cc1cc2nncn2nc1N1CCc2ncc(-c3cnn(C)c3)cc2C1 [Compound 140, 3-(1-methylpyrazol-4-yl)-6-(7-methyl-[1,2,4]triazolo[4,3-b]pyridazin-6-yl)-7,8-dihydro-5H-1,6-naphthyridine] | 100 | 373 |  |
| Cc1cc2nccn2nc1N1CCc2ncc(-c3cnn(C)c3)cc2C1 [Compound 141, 6-(7-methylimidazo[1,2-b]pyridazin-6-yl)-3-(1-methylpyrazol-4-yl)-7,8-dihydro-5H-1,6-naphthyridine] | 91 | 583 |  |
| Cc1c(N2CCc3ncc(-c4cnn(C5CC5)c4)cc3C2)nn2cnnc2c1C [Compound 142, 3-(1-cyclopropylpyrazol-4-yl)-6-(7,8-dimethyl-[1,2,4]triazolo[4,3-b]pyridazin-6-yl)-7,8-dihydro-5H-1,6-naphthyridine] | 93 | 169 |  |
| Cc1cc2nncn2nc1N1CCc2ncc(-c3cnn(C4CC4)c3)cc2C1 [Compound 143, 3-(1-cyclopropylpyrazol-4-yl)-6-(7-methyl-[1,2,4]triazolo[4,3-b]pyridazin-6-yl)-7,8-dihydro-5H-1,6-naphthyridine] | 89 | 138 |  |
| Cc1cc2nccn2nc1N1CCc2ncc(-c3cnn(CC(C)C)c3)cc2C1 [Compound 144, 3-(1-isobutylpyrazol-4-yl)-6-(7-methylimidazo[1,2-b]pyridazin-6-yl)-7,8-dihydro-5H-1,6-naphthyridine] | 44 | 266 |  |
| Cc1cc2nccn2nc1N1CCc2ncc(-c3cnn(C4CC4)c3)cc2C1 [Compound 145, 3-(1-cyclopropylpyrazol-4-yl)-6-(7-methylimidazo[1,2-b]pyridazin-6-yl)-7,8-dihydro-5H-1,6-naphthyridine] | 74 | 304 |  |
| Cc1c(N2CCc3ncc(-c4cnn(CC(C)C)c4)cc3C2)nn2cnnc2c1C [Compound 146, 6-(7,8-dimethyl-[1,2,4]triazolo[4,3-b]pyridazin-6-yl)-3-(1-isobutylpyrazol-4-yl)-7,8-dihydro-5H-1,6-naphthyridine] | 107 | 227 |  |
| Cc1cc2nncn2nc1N1CCc2ncc(-c3cnn(CC(C)C)c3)cc2C1 [Compound 147, 3-(1-isobutylpyrazol-4-yl)-6-(7-methyl-[1,2,4]triazolo[4,3-b]pyridazin-6-yl)-7,8-dihydro-5H-1,6-naphthyridine] | 99 | 477 |  |
| Cc1c(N2CCc3ncc(-c4cnn(C5CCNCC5)c4)cc3C2)nn2cnnc2c1C [Compound 148, 6-(7,8-dimethyl-[1,2,4]triazolo[4,3-b]pyridazin-6-yl)-3-[1-(4-piperidyl)pyrazol-4-yl]-7,8-dihydro-5H-1,6-naphthyridine] | 106 | 296 |  |
| Cc1cc2nncn2nc1N1CCc2ncc(-c3cnn(C4CCNCC4)c3)cc2C1 [Compound 149, 6-(7-methyl-[1,2,4]triazolo[4,3-b]pyridazin-6-yl)-3-[1-(4-piperidyl)pyrazol-4-yl]-7,8-dihydro-5H-1,6-naphthyridine] | 107 | 316 |  |
| Cc1cc2nccn2nc1N1CCc2ncc(-c3cnn(C4CCNCC4)c3)cc2C1 [Compound 150, 6-(7-methylimidazo[1,2-b]pyridazin-6-yl)-3-[1-(4-piperidyl)pyrazol-4-yl]-7,8-dihydro-5H-1,6-naphthyridine] | 87 | 568 |  |
| Cc1cc2nncn2nc1N1CCc2ncccc2C1 [Compound 151, 6-(7-methyl-[1,2,4]triazolo[4,3-b]pyridazin-6-yl)-7,8-dihydro-5H-1,6-naphthyridine] |  |  | Emax (CHO-K1): 93% |
| Cc1c(N2CCc3ncc(N)cc3C2)nn2cnnc2c1C [Compound 152, 6-(7,8-dimethyl-[1,2,4]triazolo[4,3-b]pyridazin-6-yl)-5,6,7,8-tetrahydro-1,6-naphthyridin-3-amine] |  |  | Emax (CHO-K1, read-out: Emax (% ACh maximum at 30 μM)): 102%; EC50 [3]: 1280 nM |
| CC(=O)Nc1cnc2c(c1)CN(c1nn3cnnc3c(C)c1C)CC2 [Compound 153, N-(6-(7,8-dimethyl-[1,2,4]triazolo[4,3-b]pyridazin-6-yl)-5,6,7,8-tetrahydro-1,6-naphthyridin-3-yl)acetamide] |  |  | Emax at 30 µM [4]: 84%; EC50 [3]: 3380 nM |
| Cc1c(N2CCc3ncc(NC(=O)C(C)C)cc3C2)nn2cnnc2c1C [Compound 154, N-(6-(7,8-dimethyl-[1,2,4]triazolo[4,3-b]pyridazin-6-yl)-5,6,7,8-tetrahydro-1,6-naphthyridin-3-yl)isobutyramide] |  |  | Emax at 30 µM [4]: 79%; EC50 [3]: 3630 nM |
| COc1ccc(C(=O)Nc2cnc3c(c2)CN(c2nn4cnnc4c(C)c2C)CC3)cn1 [Compound 155, N-(6-(7,8-dimethyl-[1,2,4]triazolo[4,3-b]pyridazin-6-yl)-5,6,7,8-tetrahydro-1,6-naphthyridin-3-yl)-6-methoxynicotinamide] |  |  | Emax at 30 µM [4]: 92%; EC50 [3]: 966 nM |
| Cc1ccccc1C(=O)Nc1cnc2c(c1)CN(c1nn3cnnc3c(C)c1C)CC2 [Compound 156, N-(6-(7,8-dimethyl-[1,2,4]triazolo[4,3-b]pyridazin-6-yl)-5,6,7,8-tetrahydro-1,6-naphthyridin-3-yl)-2-methylbenzamide] |  |  | Emax at 30 µM [4]: 70%; EC50 [3]: 4210 nM |
| Cc1cccc(C(=O)Nc2cnc3c(c2)CN(c2nn4cnnc4c(C)c2C)CC3)c1 [Compound 157, N-(6-(7,8-dimethyl-[1,2,4]triazolo[4,3-b]pyridazin-6-yl)-5,6,7,8-tetrahydro-1,6-naphthyridin-3-yl)-3-methylbenzamide] |  |  | Emax at 30 µM [4]: 96%; EC50 [3]: 785 nM |
| Cc1c(N2CCc3ncc(NC(=O)c4ccc(F)cc4)cc3C2)nn2cnnc2c1C [Compound 158, N-(6-(7,8-dimethyl-[1,2,4]triazolo[4,3-b]pyridazin-6-yl)-5,6,7,8-tetrahydro-1,6-naphthyridin-3-yl)-4-fluorobenzamide] |  |  | Emax at 30 µM [4]: 79%; EC50 [3]: 672 nM |
| Cc1c(N2CCc3ncc(Oc4ccccc4F)cc3C2)nn2cnnc2c1C [Compound 159, 6-(7,8-dimethyl-[1,2,4]triazolo[4,3-b]pyridazin-6-yl)-3-(2-fluorophenoxy)-5,6,7,8-tetrahydro-1,6-naphthyridine] |  |  | Emax at 30 µM [4]: 109%; EC50 [3]: 107 nM |
